According to US20120232127A1, “REGULATION OF NEUROTRANSMITTER RELEASE THROUGH ANION CHANNELS” (KOREA INSTITUTE OF SCIENCE AND TECHNOLOGY, priority 2008, published 2012):
“Also recorded” adds a separate entry of the source. One block for each molecule: values may come before it.

How the values were obtained:
[1] = system: intracellular Ca2+ in cultured astrocytes; assay: Ca2+ imaging of TFLLR-induced [Ca2+]i transient in cultured astrocytes; assay type: cell-based, mouse
Experimental: (§1) The External solution was comprised of (in mM) 150 NaCl, 10 HEPES, 3 KCl, 2 CaCl2, 2 MgCl2, 5.5 glucose, at pH 7.3 (˜320 mOsm). For voltage clamp recordings, the internal solution contained 25 μg/ml gramicidin D and (in mM) 75 Cs2SO4, 10 NaCl, 0.1 CaCl2, and 10 HEPES, at pH 7.1 (˜310 mOsm). For current clamp recordings, the internal solution contained 25 μg/ml gramicidin D and (in mM) 75 K2SO4, 10 KCl, 0.1 CaCl2, and 10 HEPES, at pH 7.1 (˜310 mOsm). Pipette resistances ranged from 5 to 8 MΩ. For perforated patch clamp, it took 20 to 30 min to achieve acceptable perforation, with final series resistances ranging from 15 to 40 MΩ.
(§2) To test if activation of PAR1 by its specific agonist (e.g., TFLLR) causes any change in membrane conductance that might contribute to glutamate release from astrocytes, the whole cell currents and intracellular Ca^2+ responses in cultured astrocytes under gramicidin-D perforated patch configuration were simultaneously recorded (FIG. 1a). This technique minimized dialysis of intracellular ions.

[2] = system: Ca2+-activated anion channels (CAACs); assay: Gramicidin-D perforated patch clamp of TFLLR-induced inward current in cultured astrocytes; assay type: cell-based, mouse
Experimental: as §1, §2

[3] = target: T1, Ca2+-activated anion channels (CAACs) (Mus musculus, UniProt O88870, R255K); assay: as above; assay type: cell-based; settings: for block of TFLLR-induced current: 100 μM blocker, cultured astrocytes; for block of the current by CAACs: astrocytes
T1 construct: endogenous in cells; host or cells: cultured mouse cortical astrocytes
T1 sequence (O88870 1-551 R255K): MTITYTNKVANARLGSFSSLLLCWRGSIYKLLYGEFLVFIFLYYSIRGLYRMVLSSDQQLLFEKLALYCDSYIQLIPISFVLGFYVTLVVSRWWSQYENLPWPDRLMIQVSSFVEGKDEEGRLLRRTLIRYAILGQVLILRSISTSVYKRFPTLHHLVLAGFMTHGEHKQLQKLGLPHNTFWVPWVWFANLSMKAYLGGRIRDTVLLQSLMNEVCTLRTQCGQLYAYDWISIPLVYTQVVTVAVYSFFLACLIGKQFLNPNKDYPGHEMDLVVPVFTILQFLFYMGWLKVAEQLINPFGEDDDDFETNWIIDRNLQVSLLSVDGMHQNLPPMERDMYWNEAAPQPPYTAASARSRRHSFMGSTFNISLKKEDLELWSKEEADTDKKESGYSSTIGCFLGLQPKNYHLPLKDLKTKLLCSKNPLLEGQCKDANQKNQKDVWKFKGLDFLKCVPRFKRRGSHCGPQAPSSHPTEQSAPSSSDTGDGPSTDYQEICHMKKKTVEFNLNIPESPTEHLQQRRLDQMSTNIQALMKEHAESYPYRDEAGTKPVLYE
Experimental: as §1, §2

[4] = system: glutamate release from cultured astrocytes; assay: TFLLR-evoked efflux of radiotracer from [3H]-glutamate-loaded cultures; assay type: cell-based
NMDA receptor (NMDAR) = assay: Voltage clamp of NMDAR-mediated mEPSC decay and NMDAR-mediated current
[5] = target: T2, astrocytic CAAC / mBest1 channel (glutamate release) (Mus musculus, UniProt O88870, R255K); assay: Sniffer patch: astrocyte to GluR1 (L497Y)-expressing HEK293T cell pairs, TFLLR-induced glutamate release; assay type: cell-based; settings: sniffer patch, cultured astrocytes as glutamate source
T2 construct: endogenous in cells; host or cells: cultured mouse cortical astrocytes
T2 sequence (O88870 1-551 R255K): T1 sequence (O88870 1-551 R255K)
Experimental: The sniffer patch technique, which is used for determining whether or not one is permeable to glutamate, was performed as described in Lee, C. J. et al. Astrocytic control of synaptic NMDA receptors. J Physiol 581, 1057-81 (2007), which is hereby incorporated by reference for all purposes as if fully set forth herein.
2. In experiments using astrocyte-HEK293T cell pairs, the sniffer patch techniques used naïve, scrambled- or mBest1-specific shRNA expressing (with GFP) astrocytes as a glutamate source; and GluR1 (L497Y) expressing HEK293T cells (with DsRED) as a detector. After obtaining gigaohm sealing, GluR1 (L497Y)-expressing cell was firstly ruptured, and then counterpart astrocytes were pressure-applied with 500 uM of TFLLR to evoke an increase in astrocytic intracellular Ca^2+ and resulting glutamate release onto the adjacent HEK293T cells.
GluR1LY-expressing detector cells were patched with the pipette solution pH 7.3 containing 110 mM CsGluconate, 30 mM CsCl, 5 mM HEPES, 4 mM NaCl, 2 mM MgCl2, 5 mM EGTA, and 1 mM CaCl2. The percentage of GluR1 (L497Y)-mediated current to the full activation level was analyzed by dividing the current amplitude of GluR1 (L497Y) current obtained through sniffer patch measurement by that of fully activated GluR1 (L497Y) current in the same cells.
The glutamate release through astrocytic CAACs was examined by using “sniffer-patch” technique and recording real-time glutamate release from cultured astrocytes (FIG. 10a). Using this technique, the present inventors observed that TFLLR-induced astrocytic glutamate release into an adjacent HEK293T cells expressing the non-desensitizing AMPA receptor subunit GluR1 (L497Y) mutant evoked an inward current sensitive to AMPA receptor antagonists, which is interpreted to reflect release of glutamate. The effects of TFLLR on current responses in transfected HEK293T cells was blocked by the treatment of niflumic acid (% block by niflumic acid=66.6±5.7%, FIGS. 10d to 10f), which is consistent with the idea that astrocytic CAAC is permeable to glutamate.

[6] = target: T3, Ca2+-activated anion channels (CAACs) (Mus musculus, UniProt O88870); assay: Gramicidin-D perforated patch clamp of TFLLR-induced inward current in cultured astrocytes; assay type: cell-based; settings: cultured astrocytes, voltage-independent block
T3 construct: endogenous in cells; host or cells: cultured mouse cortical astrocytes
T3 sequence (O88870 1-551 R255K): T1 sequence (O88870 1-551 R255K)
Experimental: as §1, §2

astrocytic CAACs = target: T4, astrocytic CAACs (Mus musculus, UniProt O88870, R255K); assay: Whole-cell patch clamp, astrocytic CAAC current directly activated by 4.5 μM internal Ca2+; assay type: cell-based; settings: internal solution with 4.5 μM Ca2+
T4 construct: endogenous in cells; host or cells: cultured mouse cortical astrocytes
T4 sequence (O88870 1-551 R255K): T1 sequence (O88870 1-551 R255K)
Experimental: Patch pipettes which have 3-6MΩ of resistance are filled with the standard intracellular solution. Current voltage curves were established by applying 100- or 200-ms-duration voltage ramps from −100 to +100 mV. […]. Data were acquired by an Axopatch 200A amplifier controlled by Clampex 9.0 via a Digidata 1322A data acquisition system (Molecular Devices). Experiments were conducted at room temperature (20˜24° C.). The standard pipette solution was comprised of (in mM) 146 CsCl, 2 MgCl2, 5 (Ca^2+)-EGTA, 8 HEPES, and 10 sucrose, at pH 7.3, adjusted with CsOH. The concentration of free [Ca^2+]i in the solution was determined (Kuruma, A. & Hartzell, H. C. Bimodal control of a Ca(^2+)-activated Cl(−) channel by difference Ca(^2+) signals. J Gen Physiol 115, 59-80 (2000), which is hereby incorporated by reference for all purposes as if fully set forth herein). The standard extracellular solution was comprised of (in mM) 140 NaCl, 5 KCl, 2 CaCl2, 1 MgCl2, 15 glucose, and 10 HEPES, with pH 7.3 as adjusted using NaOH.
Because CAACs can permeate large anions and could be directly activated by applying internal solutions with known Ca^2+ concentrations, it was tested whether astrocytic CAACs can permeate glutamate by directly applying internal solutions containing 4.5 μM of Ca^2+ at which level CAACs are maximally activated (FIG. 10).

[7] = system: CAACs expressed in Xenopus laevis oocytes; settings: read-out: reported IC50 value for CAACs expressed in Xenopus laevis oocytes; cited from earlier work
[8] = system: evoked EPSPs in hippocampal slices; assay: Current clamp of evoked EPSPs, Schaffer collateral to CA1 pyramidal neuron synapse in hippocampal slices; settings: 30 μM niflumic acid
Experimental: To assess whether CAAC-dependent glutamate release in astrocytes occurs and enhances synaptic potentials in vivo, a series of current clamp experiments were carried out to directly measure the effects of CAAC-dependent glutamate release on the evoked EPSPs (eEPSPs) of the Schaffer collateral to CA1 pyramidal neuron synapse in hippocampal slices. Under the similar recording conditions as previously described in ‘Lee, C. J. et al. Astrocytic control of synaptic NMDA receptors.

[9] = BAPTA-AM, 50 μM preincubation for 30 min
[10] = U73122 2 μM, preincubation 10 min
[11] = thapsigargin 100 nM, preincubation 5 min
[12] = thapsigargin 100 nM, preincubation 5 min, listed as Thapsigargin

Molecule: CC(=O)OCOC(=O)CN(CC(=O)OCOC(C)=O)c1ccccc1OCCOc1ccccc1N(CC(=O)OCOC(C)=O)CC(=O)OCOC(C)=O [BAPTA-AM]
effect on TFLLR-induced [Ca2+]i transient [1, 9]: eliminated; also recorded: inhibition | effect on TFLLR-induced current [2, 9]: eliminated; also recorded: inhibition

block of TFLLR-induced current [3]: blocked
Molecule: O=C(O)c1cc([N+](=O)[O-])ccc1NCCCc1ccccc1 [NPPB, 5-nitro-2(3-phenylpropylamino)-benzoic acid]

Molecule: COc1ccc2c(c1)CC[C@@H]1[C@@H]2CC[C@]2(C)[C@@H](NCCCCCCN3C(=O)C=CC3=O)CC[C@@H]12 [U73122]
effect on TFLLR-induced [Ca2+]i increase [1, 10]: reduced; also recorded: inhibition | effect on TFLLR-induced inward current [2, 10]: reduced; also recorded: inhibition

block of the current by CAACs ([3]; 100 μM): did not block
Molecule: CC1(C)[C@@H](OC(=O)CCC(=O)O)CC[C@]2(C)[C@H]3C(=O)C=C4[C@@H]5C[C@@](C)(C(=O)O)CC[C@]5(C)CC[C@@]4(C)[C@]3(C)CC[C@@H]12 [carbenoxolone]

block of TFLLR-induced current [3]: blocked
Molecule: O=C(O)c1ccccc1Nc1cccc(C(F)(F)F)c1 [flufenamic acid]
inhibition of TFLLR-evoked efflux of radiotracer from [3H]-glutamate-loaded cultures [4]: 57%

Molecule: O=C(O)c1cccnc1Nc1cccc(C(F)(F)F)c1 [niflumic acid]
effect on TFLLR-induced increases in intracellular Ca2+ ([1]; 100 μM niflumic acid, n=5): attenuated but did not completely block | effect on NMDAR-mediated current amplitude (NMDA receptor (NMDAR)): minimally affected | TFLLR-induced prolongation of slow NMDAR-mediated component of mEPSC decay (NMDA receptor (NMDAR); voltage clamp): sensitive | % block of TFLLR effect on current responses in GluR1 (L497Y)-transfected HEK293T cells [5]: 66.6±5.7% | block of TFLLR-induced current [3]: blocked; also recorded: inhibited | block of TFLLR-induced current ([3]; listed as Niflumic acid): blocked | IC50 [6]: 9.8 µM | inhibition of TFLLR-evoked efflux of radiotracer from [3H]-glutamate-loaded cultures [4]: 69% | block of directly activated non-desensitizing CAAC current (astrocytic CAACs): readily blocked | IC50 [7]: 10.1 µM | effect on TFLLR enhancement of eEPSP [8]: blocked; also recorded: not statistically significant

Molecule: C/C=C(/C)C(=O)O[C@H]1C(C)=C2[C@H]([C@@H]1OC(=O)CCCCCCC)[C@@](C)(OC(C)=O)C[C@H](OC(=O)CCC)[C@@]1(O)[C@H]2OC(=O)[C@@]1(C)O [thapsigargin]
effect on TFLLR-induced [Ca2+]i increase [1, 11]: reduced | effect on TFLLR-induced [Ca2+]i increase [1, 12]: inhibition | effect on TFLLR-induced inward current [2, 11]: reduced | effect on TFLLR-induced inward current [2, 12]: inhibition

Molecule: chlorotoxin
block of the current by CAACs ([3]; 1 μM): did not block
